Data taken from US10508089B2, “Use of N-(1,3,4-Oxadiazol-2-yl)arylcarboxamides or their salts for controlling unwanted plants in areas of transgenic crop plants being tolerant to HPPD inhibitor herbicides” (BASF SE, priority 2014, dated 2019).
Where two headings read alike, the source gives them in different places.

Columns and labels:
[1] = system: T3 cotton events expressing PfHPPD-Evo33; assay type: in vivo; settings: 200 g Al/ha, post-emergence V3, scored after 14 days, field
[2] = system: T2 soybean events expressing PfHPPD-W336 (PfHPPD-G336W); assay type: in vivo; settings: 14 days after treatment

`Cc1nnc(NC(=O)c2ccc(C(F)(F)F)c(S(C)(=O)=O)c2C)o1` [Compound 2-145] was tested, and the “Average maximum phytotoxicity scoring” value ([1]; cotton event Evo33/1) was 3 (“3” = high tolerance; 0%-10% damaged leaf area), the “Average maximum phytotoxicity scoring” value ([1]; cotton event Evo33/2) was 3 (“3” = high tolerance; 0%-10% damaged leaf area) and the “Average maximum phytotoxicity scoring” value ([1]; cotton event Evo33/3) was 3 (“3” = high tolerance; 0%-10% damaged leaf area). For the same compound, the “Average maximum phytotoxicity scoring” value ([1]; cotton event Evo33/4) was 3 (“3” = high tolerance; 0%-10% damaged leaf area), the “Average maximum phytotoxicity scoring” value ([1]; cotton event Evo33/5) was 3 (“3” = high tolerance; 0%-10% damaged leaf area) and the “Average maximum phytotoxicity scoring” value ([1]; cotton event Evo33/6) was 3 (“3” = high tolerance; 0%-10% damaged leaf area). The “Number of plants categorized herbicide tolerance “0” (marginal; 41%-100% damaged leaf area)” value (“Number … (marginal; 41%-100% damaged leaf area)” for short) ([2]; 6.25 g Al/ha, total 12) was 1, the “Number of plants categorized herbicide tolerance “1” (moderate; 26%-40% damaged leaf area)” value (shortened to “Number … (moderate; 26%-40% damaged leaf area)”) ([2]; 6.25 g Al/ha, total 12) was 0 and the “Number of plants categorized herbicide tolerance “2” (good; 16%-25% damaged leaf area)” value (shortened to “Number … (good; 16%-25% damaged leaf area)”) ([2]; 6.25 g Al/ha, total 12) was 0. For the same compound, the “Number of plants categorized herbicide tolerance “3” (high; less than or equal to 15% damaged leaf area)” value ([2]; 6.25 g Al/ha, total 12) was 11, the “Number … (marginal; 41%-100% damaged leaf area)” value ([2]; 25 g Al/ha, total 16) was 0 and the “Number … (moderate; 26%-40% damaged leaf area)” value ([2]; 25 g Al/ha, total 16) was 2. For the same compound, the “Number … (good; 16%-25% damaged leaf area)” value ([2]; 25 g Al/ha, total 16) was 3, the “Number of plants categorized herbicide tolerance “3” (high; less than or equal to 15% damaged leaf area)” value ([2]; 25 g Al/ha, total 16) was 11 and the “Number … (marginal; 41%-100% damaged leaf area)” value ([2]; 50 g Al/ha, total 4) was 0. For the same compound, the “Number … (moderate; 26%-40% damaged leaf area)” value ([2]; 50 g Al/ha, total 4) was 0, the “Number … (good; 16%-25% damaged leaf area)” value ([2]; 50 g Al/ha, total 4) was 1 and the “Number of plants categorized herbicide tolerance “3” (high; less than or equal to 15% damaged leaf area)” value ([2]; 50 g Al/ha, total 4) was 3. For the same compound, the “Number … (marginal; 41%-100% damaged leaf area)” value ([2]; 75 g Al/ha, total 4) was 0, the “Number … (moderate; 26%-40% damaged leaf area)” value ([2]; 75 g Al/ha, total 4) was 1 and the “Number … (good; 16%-25% damaged leaf area)” value ([2]; 75 g Al/ha, total 4) was 0. For the same compound, the “Number of plants categorized herbicide tolerance “3” (high; less than or equal to 15% damaged leaf area)” value ([2]; 75 g Al/ha, total 4) was 3.
